Test results published in US10383948B2, “Anti-cMet antibody drug conjugates and methods for their use” (AbbVie Inc., priority 2016, dated 2019).

Experiments:
[1] = system: SNU-620; assay: Cytotoxicity assay (CellTiter-Glo, 6 days); assay type: cell-based, human; settings: SNU-620 gastric cancer
Method: (§1) Tumor cells were plated at 2000-5000 cells/well in 180 μL growth medium containing 10% FBS in 96-well plates, and cultured at 37° C. in a humidified incubator with 5% C02. The following day, titrations of antibodies or ADCs in 20 μL were added and cells were incubated for 6 days. Cell viability was determined using a CellTiter-Glo Luminescent Cell Viability Assay (Promega) according to the manufacturer's instructions. A non-binding, irrelevant negative control ADC conjugated to MMAE was also included in all assays to confirm that cell killing was antigen dependent.

[2] = system: MDA-MB-231; assay: Cytotoxicity assay (CellTiter-Glo, 6 days); assay type: cell-based, human; settings: MDA-MB-231 breast cancer; relative to untreated control at ≤1 μg/mL in a six day proliferation
Method: as §1

[3] = system: HT-29; assay: Cytotoxicity assay (CellTiter-Glo, 6 days); assay type: cell-based, human; settings: HT-29 colorectal cancer
Method: as §1

[4] = system: IM-95; assay: Cytotoxicity assay (CellTiter-Glo, 6 days); assay type: cell-based, human; settings: IM-95 gastric cancer
Method: as §1

[5] = system: MCF-7; assay: Cytotoxicity assay (CellTiter-Glo, 6 days); assay type: cell-based, human; settings: MCF-7 breast cancer; relative to untreated control at ≤1 μg/mL in a six day proliferation
Method: as §1

[6] = system: SNU-5; assay: Cytotoxicity assay (CellTiter-Glo, 6 days); assay type: cell-based, human
Method: as §1

[7] = system: Hs746T ABT-700R xenografts; assay: ABT-700-refractory xenograft efficacy; assay type: in vivo, mice
[8] = system: metastatic solid tumors; assay: Phase 1 monotherapy, best response (RECIST 1.1); assay type: in vivo, human; settings: all treated patients
Description: Three to 6 subjects will be enrolled in each cohort and dosed once every 21 (one dose per 21-day Cycle) or 14 (2 doses per 28-day Cycle) days until disease progression or unacceptable toxicity to determine the maximum tolerated dose (MTD) or maximally administered dose (MAD). Dose limiting toxicity (DLT) definitions will be used to make decisions regarding dose-escalation. […] On the dose-expansion, subjects with advanced solid tumors with cMet overexpression, MET exon 14 mutation or MET amplification will be enrolled.
Dosing began at 0.15 mg/kg and escalated to 0.3, 0.6, 1.2, 1.8, 2.4, 3.0 and 3.3 mg/kg in subsequent cohorts as tolerated. Alternative doses (intermediate or higher) or dosing schedules may be employed based on clinical safety and PK data. A dose of 2.7 mg/kg was also utilized based on the clinical safety and PK data. […] It is not administered as an intravenous push or bolus.
Baseline radiographic tumor assessments with CT (or MRI) of the head, chest, abdomen, and pelvis will be obtained no more than 28 days prior to Cycle 1 Day 1. CT scan (or MRI) will then be repeated approximately every 6 weeks after start of therapy to evaluate the extent of tumor burden. Radiographic tumor assessments will continue until disease progression documented by imaging, start of a new anti cancer therapy, death or withdrawal of consent. Response evaluation will be based on RECIST version 1.1. […]

[9] = system: LG1049 patient-derived xenograft; assay: NSCLC patient-derived xenograft, Kaplan-Meier; assay type: in vivo, NSG mice; settings: ABBV-399 every four days x6, ABT-700 every seven days x6, FIGS. 10A-10B
Description: Tumor fragments of 3 to 5 mm^3 at passage 3 (P3) were implanted subcutaneously in the right rear flank of NSG mice (The Jackson Laboratory) with a trochar. For all groups, tumor volumes were plotted only for the duration that allowed the full set of animal to remain on study. If animals had to be taken off study, the remaining animals were monitored for tumor growth until they reached defined end-points. Efficacy is depicted on a Kaplan-Meier plot for (A) LG0703 and (B) LG1049 models as fractions reaching the indicated tumors volumes following therapy.

[10] = system: NSCLC; assay: Phase 1b combination with erlotinib; assay type: in vivo, human; settings: ABBV-399 2.7 mg/kg once every 21 days plus erlotinib 150 mg orally every day
Description: ABBV-399 will be combined with standard doses of erlotinib, cetuximab, bevacizumab or nivolumab starting at an ABBV-399 dose level below the MTD or MAD and then escalated no higher than MTD or MAD determined in the monotherapy dose-escalation/expansion. Dose limiting toxicity definitions will apply to the dose-escalation portion of each Combination.

[11] = system: U87MG; assay: Cytotoxicity assay (CellTiter-Glo, 6 days); assay type: cell-based, human; settings: U-87MG glioblastoma; relative to untreated control at ≤1 μg/mL in a six day proliferation
Method: as §1
as §1, with “of” for “of antibodies or”, “antigen-dependent.” for “antigen dependent.”

[12] = system: KP4; assay: Cytotoxicity assay (CellTiter-Glo, 6 days); assay type: cell-based, human; settings: KP4 pancreatic cancer; relative to untreated control at ≤1 μg/mL in a six day proliferation
Method: as §1
as §1, with “of” for “of antibodies or”, “antigen-dependent.” for “antigen dependent.”

[13] = system: A549; assay: Cytotoxicity assay (CellTiter-Glo, 6 days); assay type: cell-based, human; settings: A549 lung cancer; relative to untreated control at ≤1 μg/mL in a six day proliferation
Method: as §1
as §1, with “of” for “of antibodies or”, “antigen-dependent.” for “antigen dependent.”

[14] = system: Hs746T gastric cancer xenografts; assay: Hs746T xenograft efficacy
Method: Female SCID, SCID-Beige and nude mice were obtained from Charles River (Wilmington, Mass.) and housed at ten mice per cage. The body weight upon arrival was 20-22 g. Food and water were available ad libitum. Mice were acclimated to the animal facilities for a period of at least one week prior to commencement of experiments. Animals were tested in the light phase of a 12-hr light: 12-hr dark schedule (lights on at 06:00 hours).
Each experimental group included 8-10 animals.
Tumor volumes are depicted as mean±S.E.M.

[15] = relative to untreated control at ≤1 μg/mL in a six day proliferation
[16] = read-out: ABBV-399 IC50, cell proliferation assay, Table 7B

ABBV-399: ADC comprised of the cMet targeting antibody ABT-700 conjugated to MMAE through a valine citrulline (vc) linker
Maximal Killing [1, 15]: 80% | IC50 [1, 16]: 0.17 nM | Maximal Killing [2]: 0% | Maximal Killing [3, 15]: 70% | IC50 [3, 16]: 9 nM | Maximal Killing [4, 15]: 53% | IC50 [4, 16]: 1.7 nM | Maximal Killing [5]: 0% | inhibition of proliferation ([6]; MET-amplified SNU-5 gastric cancer cells, FIG. 4): inhibited proliferation | Maximal Killing ([6]; SNU-5 gastric cancer, relative to untreated control at ≤1 μg/mL in a six day proliferation): 85% | IC50 ([6]; read-out: ABBV-399 IC50, SNU-5 gastric cancer, cell proliferation assay, Table 7B): 0.28 nM | tumor response ([7]; Hs746T ABT-700R of approximately 300 mm^3): complete tumor regression | tumor response ([7]; refractory tumors at mean cohort size approximately 1,000 mm^3, followed by eventual outgrowth): tumor regression | best response: progressive disease ([8]; 17/40): 42.5% | best response: stable disease ([8]; 20/40): 50% | in vivo activity, comparison [9]: more active than ABT-700 alone | patients with partial response [10]: 2/6 | patients with progressive disease (new lesions) [10]: 1/6 | Maximal Killing [11]: 30% | Maximal Killing [12]: 53% | Maximal Killing [13]: 22% | in vivo activity, comparison ([14]; ABT-700 every seven days, ABBV-399 every four days, dose-dependent, FIG. 11A): more active than ABT-700 alone | tumor response ([14]; tumors relapsed after ABT-700 treatment, FIG. 12A): regression
